Values quoted from earlier work as cited in article PMC9688344, “[^225Ac]Ac-SibuDAB for Targeted Alpha Therapy of Prostate Cancer: Preclinical Evaluation and Comparison with [^225Ac]Ac-PSMA-617” (Cancers, 2022).
Where two headings read alike, the source gives them in different places.

Tests used:
[1] = cited from earlier work
[2] = tested on: PSMA-positive PC-3 PIP cells; settings: 4 h incubation; ref Tschan et al., Eur J Nucl Med Mol Imaging 2022; cited from earlier work
PSMA = molecular target: T1, PSMA (Homo sapiens, UniProt Q04609); settings: ref Deberle & Benešová et al., Theranostics 2020; cited from earlier work
T1 construct: expressed in transfected cells; host or cells: PC-3 PIP prostate cancer cells (transduced to express PSMA), provided by Prof; Dr. Martin Pomper, Johns Hopkins University
T1 sequence (Q04609 whole entry): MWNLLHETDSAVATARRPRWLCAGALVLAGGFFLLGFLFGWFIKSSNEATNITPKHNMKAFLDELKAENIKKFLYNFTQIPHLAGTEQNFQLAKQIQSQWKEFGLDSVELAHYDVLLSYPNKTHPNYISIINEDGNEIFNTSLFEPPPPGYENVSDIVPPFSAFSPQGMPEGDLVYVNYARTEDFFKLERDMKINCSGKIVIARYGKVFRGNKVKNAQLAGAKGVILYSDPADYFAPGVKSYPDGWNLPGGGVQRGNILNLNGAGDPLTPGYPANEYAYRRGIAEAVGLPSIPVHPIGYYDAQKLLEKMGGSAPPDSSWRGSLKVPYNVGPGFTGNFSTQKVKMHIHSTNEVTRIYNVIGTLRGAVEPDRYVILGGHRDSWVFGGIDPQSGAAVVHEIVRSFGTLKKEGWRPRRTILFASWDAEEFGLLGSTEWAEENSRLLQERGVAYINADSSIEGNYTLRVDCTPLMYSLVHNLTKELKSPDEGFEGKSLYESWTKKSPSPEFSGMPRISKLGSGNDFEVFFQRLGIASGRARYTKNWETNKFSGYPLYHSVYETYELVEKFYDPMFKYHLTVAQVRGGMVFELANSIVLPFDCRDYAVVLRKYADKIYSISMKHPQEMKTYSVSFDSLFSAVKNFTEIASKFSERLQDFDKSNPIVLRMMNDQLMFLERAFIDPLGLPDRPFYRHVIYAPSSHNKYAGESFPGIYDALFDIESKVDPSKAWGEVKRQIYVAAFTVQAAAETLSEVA

[3] = tested on: PC3-PIP/flu tumor-bearing mice; settings: ref Benešová et al., Mol Pharm 2018, cited from earlier work
[4] = patients; cited from earlier work

## O=C([O-])CN1CCN(CC(=O)[O-])CCN(CC(=O)NCC2CCC(C(=O)NC(Cc3ccc4ccccc4c3)C(=O)NCCCCC(NC(=O)NC(CCC(=O)O)C(=O)O)C(=O)O)CC2)CCN(CC(=O)[O-])CC1.[177Lu+3] (stereo not drawn) [[^177Lu]Lu-PSMA-617]
[1]
  logD value: −4.4 ± 0.2
[2]
  Cell uptake: 60 ± 5%
  Internalized fraction: 13 ± 2%
PSMA
  Kd: 0.013 µM
[3]; 1 h p.i.
  Blood, accumulated activity: 0.50 ± 0.06 % IA/g
  Bone, accumulated activity: 0.21 ± 0.04 % IA/g
  Heart, accumulated activity: 0.29 ± 0.03 % IA/g
  Intestines, accumulated activity: 0.24 ± 0.01 % IA/g
  Kidneys, accumulated activity: 9.8 ± 1.4 % IA/g
  Liver, accumulated activity: 0.20 ± 0.04 % IA/g
  Lung, accumulated activity: 0.57 ± 0.07 % IA/g
  Muscle, accumulated activity: 0.25 ± 0.20 % IA/g
  PC-3 PIP tumor, accumulated activity: 44 ± 12 % IA/g
  PC-3 flu tumor, accumulated activity: 0.28 ± 0.04 % IA/g
  Salivary glands, accumulated activity: 0.42 ± 0.30 % IA/g
  Spleen, accumulated activity: 0.63 ± 0.27 % IA/g
  Stomach, accumulated activity: 0.18 ± 0.02 % IA/g
  Tumor-to-blood ratio: 88 ± 13
  Tumor-to-kidney ratio: 4.5 ± 0.7
  Tumor-to-liver ratio: 213 ± 17
[3]; 4 h p.i.
  Blood, accumulated activity: ≤ 0.10 % IA/g
  Bone, accumulated activity: ≤ 0.10 % IA/g
  Heart, accumulated activity: ≤ 0.10 % IA/g
  Intestines, accumulated activity: ≤ 0.10 % IA/g
  Kidneys, accumulated activity: 3.7 ± 1.1 % IA/g
  Liver, accumulated activity: ≤ 0.10 % IA/g
  Lung, accumulated activity: ≤ 0.10 % IA/g
  Muscle, accumulated activity: ≤ 0.10 % IA/g
  PC-3 PIP tumor, accumulated activity: 56 ± 8 % IA/g
  PC-3 flu tumor, accumulated activity: ≤ 0.10 % IA/g
  Salivary glands, accumulated activity: ≤ 0.10 % IA/g
  Spleen, accumulated activity: 0.15 ± 0.04 % IA/g
  Stomach, accumulated activity: ≤ 0.10 % IA/g
  Tumor-to-blood ratio: 2315 ± 108
  Tumor-to-kidney ratio: 16 ± 2
  Tumor-to-liver ratio: 598 ± 108
[3]; 24 h p.i.
  Blood, accumulated activity: ≤ 0.10 % IA/g
  Bone, accumulated activity: ≤ 0.10 % IA/g
  Heart, accumulated activity: ≤ 0.10 % IA/g
  Intestines, accumulated activity: ≤ 0.10 % IA/g
  Kidneys, accumulated activity: 0.76 ± 0.15 % IA/g
  Liver, accumulated activity: ≤ 0.10 % IA/g
  Lung, accumulated activity: ≤ 0.10 % IA/g
  Muscle, accumulated activity: ≤ 0.10 % IA/g
  PC-3 PIP tumor, accumulated activity: 37 ± 6 % IA/g
  PC-3 flu tumor, accumulated activity: ≤ 0.10 % IA/g
  Salivary glands, accumulated activity: ≤ 0.10 % IA/g
  Spleen, accumulated activity: ≤ 0.10 % IA/g
  Stomach, accumulated activity: ≤ 0.10 % IA/g
  Tumor-to-blood ratio: 2730 ± 195
  Tumor-to-kidney ratio: 50 ± 4
  Tumor-to-liver ratio: 528 ± 51
[3]; 48 h p.i.
  Blood, accumulated activity: ≤ 0.10 % IA/g
  Bone, accumulated activity: ≤ 0.10 % IA/g
  Heart, accumulated activity: ≤ 0.10 % IA/g
  Intestines, accumulated activity: ≤ 0.10 % IA/g
  Kidneys, accumulated activity: 0.35 ± 0.05 % IA/g
  Liver, accumulated activity: ≤ 0.10 % IA/g
  Lung, accumulated activity: ≤ 0.10 % IA/g
  Muscle, accumulated activity: ≤ 0.10 % IA/g
  PC-3 PIP tumor, accumulated activity: 28 ± 4 % IA/g
  PC-3 flu tumor, accumulated activity: ≤ 0.10 % IA/g
  Salivary glands, accumulated activity: ≤ 0.10 % IA/g
  Spleen, accumulated activity: ≤ 0.10 % IA/g
  Stomach, accumulated activity: ≤ 0.10 % IA/g
  Tumor-to-blood ratio: 3776 ± 585
  Tumor-to-kidney ratio: 81 ± 11
  Tumor-to-liver ratio: 710 ± 97
[4]
  salivary gland uptake: 1.41 ± 0.53 Gy/GBq
